From patent US20230346654A1, “Anhydrous Urea Emulsions” (BAEK CLINICAL INC., priority 2020, published 2023)
Like-named read-outs stand apart in the source and are kept apart here. Each block holds one molecule with its values, some of them ahead of it.

Experiments:
[1] = Assessment of solvents: ability to solubilize urea; conditions: neat solvent
[2] = stated as well-known; cited from earlier work
[3] = Assessment of solvents: gentleness or irritation on skin; conditions: applied to skin; 1,3-propanediol even applied neat, or at 100% concentration
Text: (§1) AA refers to L-ascorbic acid. U refers to urea. % values are wt %.

[4] = Solubility of optional additional components in non-aqueous solvents; assay type: physicochemical
Text: as §1

[5] = in most solvents; cited from earlier work
[6] = in vivo; cited from earlier work
[7] = concentrations of 0.2%; cited from earlier work

- ability to solubilize urea [1]: moderate
Molecule: CC(O)CO (stereo not drawn) [1,2-propanediol]
- skin irritation and sensitivity [2]: inducing skin irritation and sensitivity

- ability to solubilize urea [1]: moderate
Molecule: OCCCCCO [1,5-pentanediol]

- concentration that can be solubilized ([4]; in 1,3 propanediol): up to 10%
- change of solubility in 1,3 propanediol ([4]; in the presence of hydroxyethyl urea): slightly increased
- concentration that can be solubilized ([4]; with 10% AA, 5% U in a 1,3 propanediol base): 7.5%
Molecule: O=C(O)CCCCCCCC(=O)O [AzA, Azelaic acid, reference compound]
- solubility [5]: very poorly soluble

- solubility ([4]; at a concentration of 0.2% in 1,3 propanediol, 1,2 propanediol and 1,3 butanediol): soluble
Molecule: Madecassoside
- ability to reduce erythema (skin redness) [7]: desirable ability to reduce erythema

The next lines start with the molecule.

Molecule: CCCCC(O)CO (stereo not drawn) [1,2-hexanediol]
- ability to solubilize urea [1]: moderate

Molecule: CC(O)CCO (stereo not drawn) [1,3-butanediol]
- gentleness on skin [3]: relatively gentle on skin

Molecule: OCCCO [1,3-propanediol]
- gentleness on skin [3]: gentleness on skin

Molecule: COc1cc(CC(C(C)=O)C(C)=O)ccc1O [Acetyl zingerone]
- solubility ([4]; in 1,3 propanediol, 1,2 propanediol and 1,3 butanediol at 0.5-1%): readily soluble

Molecule: CO[C@H]1CO[C@H]2[C@@H]1OC[C@H]2OC [Dimethyl isosorbide]
- ability to solubilize urea [1]: very limited

Molecule: OCC(O)CO [Glycerin, glycerol (1,2,3-propanetriol)]
- ability to solubilize urea [1]: moderate

Molecule: CC(C)(CO)[C@@H](O)C(=O)NCCCO [Panthenol]
- concentration at which inhibition of transepidermal water loss is apparent [6]: ≥ 1%

Molecule: OCC(O)COCC(O)CO (stereo not drawn) [diglycerin]
- ability to solubilize urea [1]: moderate

Molecule: CC1(C)[C@@H](O[C@H]2O[C@H](C(=O)O)[C@@H](O)[C@H](O)[C@H]2O[C@@H]2O[C@H](C(=O)O)[C@@H](O)[C@H](O)[C@H]2O)CC[C@]2(C)[C@H]3C(=O)C=C4[C@@H]5C[C@@](C)(C(=O)O)CC[C@]5(C)CC[C@@]4(C)[C@]3(C)CC[C@@H]12 [glycyrrhizic acid, Glycyrrhizic acid]
- solubility ([4]; in 1,3-propanediol): shows solubility
